Here are results for eleven compounds from patent publication US8759318B2, “Phosphoramidate derivatives of guanosine nucleoside compounds for treatment of viral infections” (Inhibitex, Inc., priority 2009, dated 2014).

What is called IC50 is the concentration at which inhibition is half-maximal. As a reminder, the Cmax is the maximum level reached in the sampled fluid or tissue. Broadly, the Tmax is the time from dosing to the highest level.

The test system of data set [1] is HCV replicon (Genotype 1b). The data set is described as follows: Luciferase genotype 1b replicon potency assay. The note with it: Hepatitis C virus, GETYPE1B, read-out: IC50 μM, HCV genotype 1b luciferase replicon, Renilla luciferase reporter. (In general: Replicon systems follow genome replication, usually without infectious particles.)
Data set [2] is described as follows: in vitro. The following applies: human.
Data set [3] in a line: Protide stability in normal plasma, rat. In kind it is in vitro ADME. The following applies: 37° C. How it is done:
(§1) Selected nucleoside 5′-phosphoramidates were examined for stability in human, cynomolgous monkey, rat and mouse plasma at 37° C. at both 30 min and 90 min time points.
(§2) Protide Stability in Normal Plasma: Plasma samples were prepared for analysis as follows. 50 μl of each test sample were distributed a 96-well V-bottom plate. 200 μl of acetonitrile containing 10 ng/ml of an internal standard was added to each plasma sample. The precipitated samples were centrifuged at 2500 rpm, 4° C. for 20 minutes in a Sorvall RT6000S centrifuge (Thermo Scientific, Waltham Mass.) and 100 μl of supernatant from each sample was transferred into a 96 deep well plate followed by the addition of 100 μl H2O to each sample. Samples were covered, mixed well by vortexing and maintained at 2-8° C. before and during analysis. 15 μl of each test sample was analyzed for protide concentrations by liquid chromatography coupled to tandem mass spectrometry (LC-MS/MS). Liquid chromatography was performed with an Agilent 1100 Series HPLC system equipped with a Synergi 4 μm Polar-RP, 30×2.0 mm column (Phenomenex, Torrance, Calif.). The HPLC system was coupled to an API 4000 triple quadrupole mass spectrometer (Applied Biosystems, Framingham, Mass.). Mass spectrometry was performed in positive ion mode and data was analyzed using Analyst® v1.4.2 software (Applied Biosystems, Framingham, Mass.). Data was presented as the percentage of compound recovered as compared to the 0 time point control.

Data set [4] in a line: Protide stability in normal plasma, mouse. In kind it is in vitro ADME. The following applies: 37° C. Here is the method:
as §1, §2

A short description of data set [5]: Protide stability in normal plasma, cynomolgous monkey. In kind it is in vitro ADME. The note with it: 37° C. How it is done:
as §1, §2

The nature of data set [6]: Protide stability in normal plasma, human. In kind it is in vitro ADME. The following applies: 37° C. How it is done:
as §1, §2

The conditions of data set [7]: mouse, in vivo, po, 50 mg/kg; for Cmax / T1/2 / Tmax: female, ICR.

Structures are written as SMILES. Some results are limits rather than exact numbers.

With `COc1nc(N)nc2c1ncn2C1O[C@H](COP(=O)(N[C@H](C(=O)OCC(C)(C)C)C(C)C)Oc2c(C)ccc3ccccc23)[C@@H](O)[C@@]1(C)O` (stereo partly shown) [Example 54], the IC50 in data set [1] was found to be 1.5 µM. In addition, in data set [2], the CC50 was found to be 23000 nM. The “% Compound Remaining Compared to %100 Acetonitrile Control” value came out at 60.6% in data set [3] (30 min); 58.4% in data set [3] (1.5 h); 60.7% in data set [4] (30 min); 45.7% in data set [4] (1.5 h); 119.3% in data set [5] (30 min); 124.2% in data set [5] (1.5 h). Besides, the “% Compound Remaining Compared to %100 Acetonitrile Control” value in data set [6] (30 min) came out at 80.4%; in data set [6] (1.5 h), 93.5%.

Take `COc1nc(N)nc2c1ncn2C1O[C@H](COP(=O)(N[C@H](C(=O)O[C@@H](C)c2ccccc2)C(C)C)Oc2cccc3ccccc23)[C@@H](O)[C@@]1(C)O` (stereo partly drawn) [Example 38, (2S)-((S)-1-phenylethyl) 2-((((2R,3R,4R)-5-(2-amino-6-methoxy-9H-purin-9-yl)-3,4-dihydroxy-4-methyltetrahydrofuran-2-yl)methoxy) (naphthalen-1-yloxy)phosphorylamino)-3-methylbutanoate]: the IC50 in data set [1] was 0.94 µM. Also, the CC50 in data set [2] is 29000 nM. Also, in data set [7], the Cmax is listed as 3130.0 ng/g, the T1/2 was determined as 4.3 h, the Tmax amounted to 4.0 h and the AUC0-6 stood at 14380 ng·h/g. The compound also showed an AUC0-24 in data set [7] of 26837 ng·h/g.

On to `CC(C)[C@H](NP(=O)(OC[C@H]1OC(n2cnc3c(=O)[nH]c(N)nc32)[C@](C)(O)[C@@H]1O)Oc1cccc2ccccc12)C(=O)OCC(C)(C)C` (stereo partly shown) [B, reference compound], for which the “% Compound Remaining Compared to %100 Acetonitrile Control” value in data set [3] (30 min) is recorded as 66.7%; in data set [3] (1.5 h), 42.0%; in data set [4] (30 min) it was 68.3%; in data set [4] (1.5 h), 32.3%; in data set [5] (30 min), 84.5%; in data set [5] (1.5 h) it was 84.9%. Besides, the figures for the “% Compound Remaining Compared to %100 Acetonitrile Control” value in data set [6] (30 min) and in data set [6] (1.5 h) were 74.7% and 78.1%, respectively.

For the compound `COc1nc(N)nc2c1ncn2C1O[C@H](COP(=O)(N[C@@H](C)C(=O)OCc2ccccc2)Oc2cccc3ccccc23)[C@@H](O)[C@@]1(C)O` (stereo partly shown) [Example 13], in data set [1], the 50% inhibitory concentration (IC50) was 0.026 µM. In data set [2], this compound had a CC50 of 14000 nM. In addition, the “% Compound Remaining Compared to %100 Acetonitrile Control” value is listed as less than 3.9% in data set [4] (30 min); 89.1% in data set [5] (30 min); 77.0% in data set [5] (1.5 h); 97.2% in data set [6] (30 min); 85.4% in data set [6] (1.5 h).

For `COc1nc(N)nc2c1ncn2C1O[C@H](COP(=O)(N[C@H](C(=O)OC2CCOCC2)C(C)C)Oc2cccc3ccccc23)[C@@H](O)[C@@]1(C)O` (stereo partly drawn) [Example 47, (2S)-tetrahydro-2H-pyran-4-yl 2-((((2R,3R,4R)-5-(2-amino-6-methoxy-9H-purin-9-yl)-3,4-dihydroxy-4-methyltetrahydrofuran-2-yl)methoxy)(naphthalen-1-yloxy)phosphorylamino)-3-methylbutanoate], the 50% inhibitory concentration (IC50) in data set [1] was 0.18 µM. In data set [2], this compound came in with a CC50 of more than 100000 nM. Also, the “% Compound Remaining Compared to %100 Acetonitrile Control” value in data set [3] (30 min) turned out to be 71.3%; in data set [3] (1.5 h), 57.3%; in data set [4] (30 min), 74.3%; in data set [4] (1.5 h) it was 67.4%; in data set [5] (30 min) it was 112.5%; in data set [5] (1.5 h), 118.5%. The figures for the “% Compound Remaining Compared to %100 Acetonitrile Control” value in data set [6] (30 min) and in data set [6] (1.5 h) were 105.1% and 129.5%, respectively.

Regarding `COC(=O)[C@@H](C)c1ccc2cc(OP(=O)(N[C@@H](C)C(=O)OCC(C)(C)C)OC[C@H]3OC(n4cnc5c(OC)nc(N)nc54)[C@](C)(O)[C@@H]3O)ccc2c1` (stereo partly drawn) [Example 28, (2S)-methyl 2-(6-((((2R,3R,4R)-5-(2-amino-6-methoxy-9H-purin-9-yl)-3,4-dihydroxy-4-methyltetrahydrofuran-2-yl)methoxy)((S)-1-(neopentyloxy)-1-oxopropan-2-ylamino)phosphoryloxy)naphthalen-2-yl)propanoate], the IC50 in data set [1] came out at 0.023 µM. The same compound came in with a CC50 in data set [2] of 19000 nM.

With `COc1nc(N)nc2c1ncn2C1O[C@H](COP(=O)(N[C@@H](C)C(=O)OCC(C)C)Oc2cccc3ccccc23)[C@@H](O)[C@@]1(C)O` (stereo partly drawn) [Example 19, (2S)-isobutyl 2-((((2R,3R,4R)-5-(2-amino-6-methoxy-9H-purin-9-yl)-3,4-dihydroxy-4-methyltetrahydrofuran-2-yl)methoxy)(naphthalen-1-yloxy)phosphorylamino)propanoate], the half-inhibitory concentration (IC50) in data set [1] stood at 0.037 µM. Moreover, in data set [2], the CC50 came out at 14000 nM.

For `COc1nc(N)nc2c1ncn2C1O[C@H](COP(=O)(N[C@H](C(=O)OCc2ccccc2)C(C)C)Oc2cccc3ccccc23)[C@@H](O)[C@@]1(C)O` (stereo partly shown) [Example 36], the IC50 in data set [1] stood at 0.09 µM. This compound also had a CC50 in data set [2] of 34000 nM. The compound further had a Cmax in data set [7] of 1209.7 ng/g. This compound had a T1/2 in data set [7] of 2.0 h. Besides, in data set [7], the Tmax came out at 4.0 h. The same compound yielded an AUC0-6 in data set [7] of 5055 ng·h/g. Further, the AUC0-24 in data set [7] worked out at 6356 ng·h/g. Further, the “% Compound Remaining Compared to %100 Acetonitrile Control” value in data set [3] (30 min) turned out to be 16.9%; in data set [3] (1.5 h), 1.4%; in data set [4] (30 min), 0.4%; in data set [4] (1.5 h), 0%; in data set [5] (30 min), 93.7%; in data set [5] (1.5 h), 96%. In addition, the results for the “% Compound Remaining Compared to %100 Acetonitrile Control” value in data set [6] (30 min) and in data set [6] (1.5 h) were 70.3% and 74.1%, respectively.

As to `CCCOC(=O)[C@H](C)NP(=O)(OC[C@H]1OC(n2cnc3c(OC)nc(N)nc32)[C@](C)(O)[C@@H]1O)Oc1cccc2ccccc12` (stereo partly drawn) [Example 17, (2S)-propyl 2-((((2R,3R,4R)-5-(2-amino-6-methoxy-9H-purin-9-yl)-3,4-dihydroxy-4-methyltetrahydrofuran-2-yl)methoxy)(naphthalen-1-yloxy)phosphorylamino)propanoate], in data set [1], the 50% inhibitory concentration (IC50) was 0.029 µM. The compound also displayed a CC50 in data set [2] of 12000 nM.

With `COc1nc(N)nc2c1ncn2[C@@H]1O[C@H](COP(=O)(N[C@@H](CC(C)C)C(=O)OCC(C)(C)C)Oc2cccc3ccccc23)[C@@H](O)[C@@]1(C)O` (stereo partly shown) [Example 61], the 50% inhibitory concentration (IC50) in data set [1] worked out at 0.071 µM. This compound showed a CC50 in data set [2] of 14000 nM.

Consider `CCOc1nc(N)nc2c1ncn2C1O[C@H](COP(=O)(N[C@@H](C)C(=O)O[C@@H](C)c2ccccc2)Oc2cccc3ccccc23)[C@@H](O)[C@@]1(C)O` (stereo partly drawn) [Example 75, (2S)-((S)-1-phenylethyl) 2-((((2R,3R,4R)-5-(2-amino-6-ethoxy-9H-purin-9-yl)-3,4-dihydroxy-4-methyltetrahydrofuran-2-yl)methoxy)(naphthalen-1-yloxy)phosphorylamino)propanoate], for which the IC50 in data set [1] was 0.063 µM. The CC50 in data set [2] came to 12000 nM.
